“Also recorded” adds a separate entry of the source.

The test system of data set [1] is HT29/DX cells. Nature of the data set: Co-administration assay with doxorubicin (MTT) in HT29/DX cells. The data set is classed as cell-based. The procedure:
(§1) The co‐administration assay with Doxorubicin was performed in MDCK‐MDR1, HT29 and HT29/DX cells at 48 h as reported with minor modifications.[49] […] On day 2, the tested drug was added alone to the cells at different concentrations (10 nM, 100 nM, 500 nM, 1 μM, 10 μM). On day 3, the medium was removed and the drug at the same concentrations was added alone and in co‐administration with 10 μM Doxorubicin to the cells. After the established incubation time with the tested drug, MTT (0.5 mg/mL) was added to each well, and after 3–4 h incubation at 37 °C, the supernatant was removed. The formazan crystals were solubilized using 100 μL of DMSO/EtOH (1 : 1), and the absorbance values at 570 and 630 nm were determined on the microplate reader Victor 3 from PerkinElmer Life Sciences.

The subject of data set [2] is HT29 cells. Nature of the data set: Co-administration assay with doxorubicin (MTT) in HT29 cells. The data set is classed as cell-based. The procedure:
as §1

For data set [3], the system named is HT29/DX cells. Nature of the data set: Intracellular doxorubicin accumulation in HT29/DX cells.
Description: (§2) Cells were collected and the intracellular drug content was measured fluorimetrically as detailed previously,[47] using a Synregy HTX 96‐well plate reader (Bio‐Tek Instruments, Winooski, VT). The results were expressed as nmol doxorubicin/mg cell proteins, according to a titration curve previously set. […] A second series of dishes, after the incubation with doxorubicin formulations under the same experimental conditions, were left for further 10 min at 37 °C, then washed and tested for the intracellular drug content. The difference of doxorubicin concentration between the two series, expressed as nmol doxorubicin extruded/min/mg cell protein was plotted versus the initial drugs’ concentration. Values were fitted to Michaelis‐Menten equation to calculate Vmax and Km, using the Enzfitter software (Biosoft Corporation, Cambridge, United Kingdom).[47]
Data set [4] relates to HT29 cells. Nature of the data set: Intracellular doxorubicin accumulation in HT29 cells. Particulars: 24 h, doxorubicin 10 μM + compound 100 nM-10 μM.
Description: as §2
Data set [5] has as its system P-gp. The experiment in a line: Apparent permeability (Papp, BA/AB) in Caco-2 cell monolayer. Particulars: human, Caco-2, P app (BA/AB), two experiments in duplicate. (Caco-2 monolayers are a common model of the intestinal barrier.)
Description: (§3) Compounds displaying a BA/AB >2 but not inducing an ATP cell depletion are classified as class IIB3 substrates.[43]
(§4) Caco‐2 cells were seeded onto a Millicell assay system (Millipore), in which a cell monolayer was set in between a filter cell and a receiver plate at a density of 20000 cells/well. The culture medium was replaced every 48 h, and the cells were kept for 21 days in culture. The trans epithelial electrical resistance (TEER) of the monolayers was measured daily, before and after the experiment, by using an epithelial voltohmmeter (Millicell‐ERS). Generally, TEER values greater than 1000 Ω for a 21 day culture are considered optimal.
(§5) After 21 days of Caco‐2 cell growth, the medium was removed from the filter wells and from the receiver plate, and they were filled with fresh Hank's balanced salt solution (HBSS) buffer (Invitrogen). This procedure was repeated twice, and the plates were incubated at 37 °C for 30 min. After the incubation time, the HBSS buffer was removed, and drug solutions and reference compounds were added to the filter well at a concentration of 100 μM, whereas fresh HBSS was added to the receiver plate. The plates were incubated at 37 °C for 120 min. Afterward, samples were removed from the apical (filter well) and basolateral (receiver plate) side of the monolayer to measure the permeability. The apparent permeability (Papp ), in units of nms‐1, was calculated by using the same equation reported above.
In data set [6] the target is T1, P-gp (Homo sapiens, UniProt P08183). Nature of the data set: Calcein-AM transport inhibition in MDCK-MDR1 cells. Particulars: for EC50 P-gp: MDCK-MDR1 cells overexpressing P-gp, calcein-AM, mean ±SEM of two experiments in triplicate.
T1 sequence (P08183 whole entry): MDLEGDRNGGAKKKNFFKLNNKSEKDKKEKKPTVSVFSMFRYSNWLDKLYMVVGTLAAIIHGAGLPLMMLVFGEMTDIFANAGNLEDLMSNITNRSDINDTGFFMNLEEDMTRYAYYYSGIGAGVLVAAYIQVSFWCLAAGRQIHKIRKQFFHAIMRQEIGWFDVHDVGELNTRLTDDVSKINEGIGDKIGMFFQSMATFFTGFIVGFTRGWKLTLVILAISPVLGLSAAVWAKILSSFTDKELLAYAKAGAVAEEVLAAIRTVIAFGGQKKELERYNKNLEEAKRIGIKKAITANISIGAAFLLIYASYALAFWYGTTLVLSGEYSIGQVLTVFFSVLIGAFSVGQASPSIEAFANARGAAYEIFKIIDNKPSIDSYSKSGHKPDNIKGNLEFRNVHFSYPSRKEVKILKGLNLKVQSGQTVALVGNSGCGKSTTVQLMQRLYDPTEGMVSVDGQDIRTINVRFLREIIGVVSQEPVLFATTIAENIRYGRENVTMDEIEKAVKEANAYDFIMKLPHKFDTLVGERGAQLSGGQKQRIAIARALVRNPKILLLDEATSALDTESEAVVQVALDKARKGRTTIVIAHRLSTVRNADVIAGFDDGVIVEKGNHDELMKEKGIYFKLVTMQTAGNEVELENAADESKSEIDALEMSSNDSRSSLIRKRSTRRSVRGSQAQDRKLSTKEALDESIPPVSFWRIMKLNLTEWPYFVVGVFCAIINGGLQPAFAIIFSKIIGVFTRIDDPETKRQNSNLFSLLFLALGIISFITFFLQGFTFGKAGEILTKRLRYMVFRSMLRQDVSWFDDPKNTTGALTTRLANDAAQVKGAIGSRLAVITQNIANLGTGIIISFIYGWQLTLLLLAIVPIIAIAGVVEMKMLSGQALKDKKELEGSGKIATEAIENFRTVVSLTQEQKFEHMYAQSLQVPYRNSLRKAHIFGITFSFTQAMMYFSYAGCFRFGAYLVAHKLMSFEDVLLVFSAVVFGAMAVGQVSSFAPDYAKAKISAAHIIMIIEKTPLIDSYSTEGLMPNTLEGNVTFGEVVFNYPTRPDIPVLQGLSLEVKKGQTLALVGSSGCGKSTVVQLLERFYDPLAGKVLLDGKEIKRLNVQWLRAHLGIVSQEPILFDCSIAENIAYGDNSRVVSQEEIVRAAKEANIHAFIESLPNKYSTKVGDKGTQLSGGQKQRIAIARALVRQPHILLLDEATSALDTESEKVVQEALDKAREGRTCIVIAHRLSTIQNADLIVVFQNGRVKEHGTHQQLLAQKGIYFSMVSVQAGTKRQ
Description: (§6) The new compounds were tested for their activity toward P‐gp and the other two MDR sister proteins, MRP1 and BCRP, by measuring the inhibition of the transport of the profluorescent probe calcein‐AM (P‐gp and MRP1 substrate) in cells overexpressing P‐gp and MRP1 (MDCK‐MDR1 and MDCK‐MRP1 cells, respectively) and of the fluorescent probe Hoechst 33342 (BCRP substrate) in cells overexpressing BCRP (MDCK‐BCRP cells).
Each cell line (30,000 cells per well) was seeded into black CulturePlate 96/wells plate with 100 μL medium and allowed to become confluent overnight. 100 μL of test compounds, solubilized in culture medium, were added to monolayers, with final concentrations ranging from 0.1 to 100 μM. Thus, after a 30 min incubation time at 37 °C, calcein‐AM was added in 100 μL of Phosphate Buffered Saline (PBS) to the 96/wells plate to yield a final concentration of 2.5 μM; the plate was then incubated for 30 min. Each well was washed 3 times with ice cold PBS and saline buffer was added to each well and the plate read with Victor3 (PerkinElmer) at excitation and emission wavelengths of 485 nm and 535 nm, respectively. In these experimental conditions, calcein cell accumulation in the absence and in the presence of tested compounds was evaluated and fluorescence basal level was estimated with untreated cells. In treated wells, the increase of fluorescence with respect to basal level was measured. EC50 values were determined by fitting the fluorescence increase percentage versus log[dose].
Data set [7] addresses T1, P-gp. The experiment in a line: ATP cell depletion (ATPlite assay) in MDCK-MDR1 cells. Particulars: Yes/No. (In ATP-based viability assays light output follows the ATP content of the culture.)
Description: In addition, the P‐gp interacting profile of the new compounds was evaluated by the combination of the inhibition of the efflux of calcein‐AM in MDCK‐MDR1 cells test with other two assays: the apparent permeability (Papp ) determination in the Caco‐2 cell monolayer, and the ATP cell depletion in MDCK‐MDR1 cells. […] This last information is completed by the ATP cell depletion assay, which measures the total ATP cell level in the MDCK cells overexpressing only P‐gp: in this setting, the observed effect can be mainly ascribed to the overexpressed transporter.[42]
The MDCK‐MDR1 cells seeded into 96‐well microplate in 100 μL of complete medium at a density 2×10^4 cells/well were incubated overnight (O/N) in a humidified atmosphere 5 % CO2 at 37 °C. The medium was removed and 100 μL of complete medium either alone or containing different concentrations of test compounds were added. The plate was incubated for 2 h in a humidified 5 % CO2 atmosphere at 37 °C. 50 μL of mammalian cell lysis solution was added to all wells and the plate shaken for five minutes in an orbital shaker. 50 μL of substrate solution was added to all wells and the plate shaken for five minutes in an orbital shaker. The plate was dark adapted for ten minutes and the luminescence was measured.
Data set [8] deals with MRP1 (Homo sapiens, UniProt P33527). The experiment in a line: cell-based.
Chain of MRP1 (P33527 whole entry): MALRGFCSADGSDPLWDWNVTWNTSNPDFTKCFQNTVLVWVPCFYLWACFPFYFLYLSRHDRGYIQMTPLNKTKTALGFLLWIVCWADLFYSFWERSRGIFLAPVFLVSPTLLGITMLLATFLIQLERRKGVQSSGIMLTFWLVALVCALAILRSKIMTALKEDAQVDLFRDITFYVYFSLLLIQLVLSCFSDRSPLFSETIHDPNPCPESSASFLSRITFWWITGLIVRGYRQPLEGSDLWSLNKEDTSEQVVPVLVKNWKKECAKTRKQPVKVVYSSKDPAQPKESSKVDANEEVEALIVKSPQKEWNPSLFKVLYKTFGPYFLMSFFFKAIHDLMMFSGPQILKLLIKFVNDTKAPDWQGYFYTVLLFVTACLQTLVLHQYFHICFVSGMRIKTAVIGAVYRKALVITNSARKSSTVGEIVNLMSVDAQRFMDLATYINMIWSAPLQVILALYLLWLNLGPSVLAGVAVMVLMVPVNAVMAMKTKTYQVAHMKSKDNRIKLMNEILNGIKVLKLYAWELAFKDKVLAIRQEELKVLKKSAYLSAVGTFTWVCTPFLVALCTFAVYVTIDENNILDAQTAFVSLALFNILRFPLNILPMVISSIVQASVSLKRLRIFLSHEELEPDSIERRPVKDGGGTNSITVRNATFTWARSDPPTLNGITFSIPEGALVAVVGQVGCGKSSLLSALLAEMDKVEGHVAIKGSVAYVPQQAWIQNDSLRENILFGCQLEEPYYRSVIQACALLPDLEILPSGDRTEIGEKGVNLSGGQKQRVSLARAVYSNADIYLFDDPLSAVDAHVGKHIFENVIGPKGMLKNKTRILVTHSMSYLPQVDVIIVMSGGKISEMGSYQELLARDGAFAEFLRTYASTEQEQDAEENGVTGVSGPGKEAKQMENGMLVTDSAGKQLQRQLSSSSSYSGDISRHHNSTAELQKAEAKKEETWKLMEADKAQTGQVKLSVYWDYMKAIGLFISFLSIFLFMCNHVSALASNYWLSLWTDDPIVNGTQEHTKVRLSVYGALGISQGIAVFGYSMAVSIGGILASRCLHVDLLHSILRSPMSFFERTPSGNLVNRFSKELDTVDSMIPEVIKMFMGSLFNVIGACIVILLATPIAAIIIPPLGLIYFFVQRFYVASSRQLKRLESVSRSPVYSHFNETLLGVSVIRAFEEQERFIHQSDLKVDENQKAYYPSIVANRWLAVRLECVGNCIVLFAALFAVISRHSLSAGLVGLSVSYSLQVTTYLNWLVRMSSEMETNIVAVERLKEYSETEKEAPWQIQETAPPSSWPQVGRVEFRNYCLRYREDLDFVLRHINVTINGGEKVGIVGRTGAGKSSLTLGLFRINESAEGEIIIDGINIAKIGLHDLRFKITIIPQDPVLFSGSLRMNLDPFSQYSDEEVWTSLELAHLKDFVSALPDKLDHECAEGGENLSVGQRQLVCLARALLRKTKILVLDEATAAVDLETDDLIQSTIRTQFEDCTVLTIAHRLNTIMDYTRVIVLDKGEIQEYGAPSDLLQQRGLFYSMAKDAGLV
Description: as §6
Each cell line (30,000 cells per well) was seeded into black CulturePlate 96/wells plate with 100 μL medium and allowed to become confluent overnight. 100 μL of test compounds, solubilized in culture medium, were added to monolayers, with final concentrations ranging from 0.1 to 100 μM. […] Each well was washed 3 times with ice cold PBS and saline buffer was added to each well and the plate read with Victor3 (PerkinElmer) at excitation and emission wavelengths of 485 nm and 535 nm, respectively. In these experimental conditions, calcein cell accumulation in the absence and in the presence of tested compounds was evaluated and fluorescence basal level was estimated with untreated cells. In treated wells, the increase of fluorescence with respect to basal level was measured. EC50 values were determined by fitting the fluorescence increase percentage versus log[dose].
In data set [9] the test system is Caco-2 cell monolayer. The experiment in a line: Apparent permeability (Papp, BA/AB) in Caco-2 cell monolayer. Particulars: BA/AB ratio, two experiments in duplicate.
Description: as §3, §4, §5
The target of data set [10] is T1, P-gp. Nature of the data set: P-gp interacting profile (combination of calcein-AM, Papp and ATP cell depletion assays). Particulars: classification from Papp, calcein-AM inhibition and ATP cell depletion.
Description: In addition, the P‐gp interacting profile of the new compounds was evaluated by the combination of the inhibition of the efflux of calcein‐AM in MDCK‐MDR1 cells test with other two assays: the apparent permeability (Papp ) determination in the Caco‐2 cell monolayer, and the ATP cell depletion in MDCK‐MDR1 cells. […] This last information is completed by the ATP cell depletion assay, which measures the total ATP cell level in the MDCK cells overexpressing only P‐gp: in this setting, the observed effect can be mainly ascribed to the overexpressed transporter.[42] […] Compounds displaying a BA/AB >2 but not inducing an ATP cell depletion are classified as class IIB3 substrates.[43]
The target in data set [11] is T2, BCRP (Homo sapiens, UniProt Q9UNQ0).
T2 construct: expressed in transfected cells; host or cells: MDCK-BCRP (Madin-Darby Canine Kidney, transfected); gift of Prof; P. Borst, NKI-AVL
T2 sequence (Q9UNQ0 1-655): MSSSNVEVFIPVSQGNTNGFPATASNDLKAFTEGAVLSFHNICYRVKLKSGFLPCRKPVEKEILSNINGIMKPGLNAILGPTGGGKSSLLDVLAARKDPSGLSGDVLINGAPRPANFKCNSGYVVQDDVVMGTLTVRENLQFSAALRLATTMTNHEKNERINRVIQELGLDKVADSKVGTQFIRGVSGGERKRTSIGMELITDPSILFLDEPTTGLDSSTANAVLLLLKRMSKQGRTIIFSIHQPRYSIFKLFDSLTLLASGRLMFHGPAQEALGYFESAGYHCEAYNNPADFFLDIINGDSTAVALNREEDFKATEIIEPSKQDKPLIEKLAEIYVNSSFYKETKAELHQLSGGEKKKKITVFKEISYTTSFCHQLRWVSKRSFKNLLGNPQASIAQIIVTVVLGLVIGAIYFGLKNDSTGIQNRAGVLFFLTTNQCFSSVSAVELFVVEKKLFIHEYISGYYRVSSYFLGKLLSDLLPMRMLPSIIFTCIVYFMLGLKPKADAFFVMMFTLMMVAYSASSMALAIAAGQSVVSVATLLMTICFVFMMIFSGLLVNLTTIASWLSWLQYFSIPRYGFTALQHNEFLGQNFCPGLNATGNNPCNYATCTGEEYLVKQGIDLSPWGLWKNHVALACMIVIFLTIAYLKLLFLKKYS
Nature of the data set: Hoechst 33342 transport inhibition in MDCK-BCRP cells. Particulars: MDCK-BCRP cells overexpressing BCRP, mean ±SEM. The data set is classed as cell-based.
Description: Each cell line (30,000 cells per well) was seeded into black CulturePlate 96/wells plate with 100 μL medium and allowed to become confluent overnight. 100 μL of test compounds, solubilized in culture medium, were added to monolayers, with final concentrations ranging from 0.1 to 100 μM. After 30 min incubation time at 37 °C, Hoechst 33342 was added in 100 μL of Phosphate Buffered Saline (PBS) to yield a final concentration of 8 μM to the 96/wells plate and the plate incubated for 30 min. The supernatants were drained and the cells were fixed for 20 min under light protection using 100 μL per well of a 4 % PFA solution. Each well was washed 3 times with ice cold PBS and saline buffer added to each well and the plate read with Victor3 (PerkinElmer) at excitation and emission wavelengths of 340/35 nm and 485/20 nm, respectively. In these experimental conditions, Hoechst 33342 accumulation in the absence and in the presence of tested compounds was evaluated and fluorescence basal level was estimated with untreated cells. In treated wells the increase of fluorescence with respect to basal level was measured. EC50 values were determined by fitting the fluorescence increase percentage versus log[dose].

Data set [12] concerns HT29/DX cells. Nature of the data set: Kinetic parameters of doxorubicin efflux in HT29/DX cells.
Description: as §2
Data set [13] has as its system HT29 cells. The experiment in a line: Kinetic parameters of doxorubicin efflux in HT29 cells.
Description: as §2
[14] abbreviates: absence or presence of 10 μM compound 1 e.
Where [15] appears, read: read-out: Km of doxorubicin efflux, absence or presence of 10 μM compound 1 e.

Consider `COc1cc2c(cc1OC)CN(c1nc(/C=C/c3cc(OC)c(OC)c(OC)c3)nc3ccccc13)CC2` [Compound 1 e, (E)‐4‐(6,7‐Dimethoxy‐3,4‐dihydroisoquinolin‐2(1H)‐yl)‐2‐(3,4,5‐trimethoxystyryl)quinazoline], for which the “cell viability, compound alone” value in data set [1] (HT29/DX (doxorubicin-resistant) cells) and in data set [2] (HT29 (doxorubicin-sensitive) cells) was “did not significantly reduce cell viability” in each case. Further, the “viability with doxorubicin co-administration” value in data set [1] (HT29/DX cells, doxorubicin 10 μM + compound 10 μM) was “reduced at the same extent of doxorubicin‐sensitive cells”. Moreover, the “effect on intracellular doxorubicin content” value in [3] (HT29/DX cells, 24 h, doxorubicin 10 μM + compound 100 nM-10 μM) is on record as “progressively increased it”; in data set [4] it was “did not modify the intracellular drug content”.

In general, efflux ratio refers to the permeability from basolateral to apical divided by that in the opposite direction, in the common usage. For orientation: melting point means the temperature, or range, at which the solid turns liquid. As to `c1ccc(CCNc2nc(-c3c4ccccc4cc4ccccc34)nc3ccccc23)cc1` [Compound 3 b, 2‐(Anthracen‐9‐yl)‐N‐phenethylquinazolin‐4‐amine], the melting point was 236 to 238 °C (dec.). Further, the efflux ratio at 120 min, 100 μM in data set [5] turned out to be 10.5. For the same molecule, in data set [6], the “EC50 P-gp” value is recorded as “not active”.

Turning to `c1ccc2c(-c3nc(N4CCOCC4)c4ccccc4n3)c3ccccc3cc2c1` [Compound 3 c, 4‐(2‐(Anthracen‐9‐yl)quinazolin‐4‐yl)morpholine], the efflux ratio at 120 min, 100 μM in data set [5] is 20. Besides, in data set [6], the “EC50 P-gp” value was “not active”.

As a reminder, the EC50 is the midpoint of the concentration-response curve. Take `COc1cc2c(cc1OC)CN(c1nc(-c3c4ccccc4cc4ccccc34)nc3ccccc13)CC2` [Compound 3 e, 2‐(Anthracen‐9‐yl)‐4‐(6,7‐dimethoxy‐3,4‐dihydroisoquinolin‐2(1H)‐yl)quinazoline]: the efflux ratio at 120 min, 100 μM in data set [5] was 18.5. Also, the ATP cell depletion result in data set [7] was “No”. Besides, the EC50 in data set [6] was 1.14 ± 0.2 µM.

As for `COc1ccc(-c2nc(NCCc3ccccc3)c3ccccc3n2)c(OC)c1OC` [Compound 4 b, N‐Phenethyl‐2‐(2,3,4‐trimethoxyphenyl)quinazolin‐4‐amine], the EC50 in data set [8] was 52 ± 10.1 µM; in data set [6], 1.41 ± 0.25 µM. Also, the efflux ratio at 120 min, 100 μM in data set [5] was 14.8. The ATP cell depletion entry in data set [7] was “No”.

For `COc1ccc(-c2nc(N3CCOCC3)c3ccccc3n2)c(OC)c1OC` [Compound 4 c, 4‐(2‐(2,3,4‐Trimethoxyphenyl)quinazolin‐4‐yl)morpholine], in data set [5], the efflux ratio at 120 min, 100 μM turned out to be 3.8. Further, the ATP cell depletion result in data set [7] was “No”. The EC50 in [6] was 9.55 ± 1.8 µM.

Take `COc1ccc2ccccc2c1-c1nc(N2CCN(C)CC2)c2ccccc2n1` [Compound 5 d, 2‐(2‐Methoxynaphthalen‐1‐yl)‐4‐(4‐methylpiperazin‐1‐yl)quinazoline]: the efflux ratio at 120 min, 100 μM in data set [5] stood at 5.4. Also, in [7], the ATP cell depletion result is recorded as “No”. In addition, the EC50 in data set [6] was 6.06 ± 1.2 µM.

For `COc1cc2c(cc1OC)CN(CCc1ccc(Nc3nc(-c4c(OC)c(OC)cc5ccccc45)nc4ccccc34)cc1)CC2` [Compound 6 a, N‐(4‐(2‐(6,7‐Dimethoxy‐3,4‐dihydroisoquinolin‐2(1H)‐yl)ethyl)phenyl)‐2‐(2,3‐dimethoxynaphthalen‐1‐yl)quinazolin‐4‐amine], the efflux ratio at 120 min, 100 μM in [5] was found to be 19.2. Further, in [7], the ATP cell depletion result is on record as “No”. In data set [6], the EC50 is 0.2 ± 0.04 µM.

Take `COc1ccc(C(c2ccc(OC)cc2)c2nc(Nc3ccc(CCN4CCc5cc(OC)c(OC)cc5C4)cc3)c3ccccc3n2)cc1` [Compound 7 a, 2‐(Bis(4‐methoxyphenyl)methyl)‐N‐(4‐(2‐(6,7‐dimethoxy‐3,4‐dihydroisoquinolin‐2(1H)‐yl)ethyl)phenyl)quinazolin‐4‐amine]: in data set [5], the efflux ratio at 120 min, 100 μM was 32.9. The ATP cell depletion result in [7] was “No”. For the same molecule, the EC50 in [6] is 0.11 ± 0.02 µM.

Regarding `COc1ccc(C(c2ccc(OC)cc2)c2nc(N3CCOCC3)c3ccccc3n2)cc1` [Compound 7 c], the “P app (BA/AB)” value in data set [9] is 1.5. Further, the efflux ratio at 120 min, 100 μM in data set [5] was less than 2. Further, in [7], the ATP cell depletion result was “do not inducing ATP cell depletion and No”. In data set [6], the EC50 is 2.13 ± 0.4 µM. Further, the P-gp interacting profile result in data set [10] is given as “P‐gp inhibitor; also recorded: pure inhibitor”.

`COc1ccc(C(c2ccc(OC)cc2)c2nc(N3CCN(C)CC3)c3ccccc3n2)cc1` [Compound 7 d, 2‐(Bis(4‐methoxyphenyl)methyl)‐4‐(4‐methylpiperazin‐1‐yl)quinazoline]: the EC50 in [8] was 43.2 ± 8.5 µM; in data set [11], 8.62 ± 1.6 µM; in data set [6], 0.96 ± 0.18 µM. Further, the efflux ratio at 120 min, 100 μM in [5] amounted to 6.9. The ATP cell depletion result in data set [7] is “No”.

Turning to `COc1ccc(C(c2ccc(OC)cc2)c2nc(N3CCc4cc(OC)c(OC)cc4C3)c3ccccc3n2)cc1` [Compound 7 e, 2‐(Bis(4‐methoxyphenyl)methyl)‐4‐(6,7‐dimethoxy‐3,4‐dihydroisoquinolin‐2(1H)‐yl)quinazoline], the efflux ratio at 120 min, 100 μM in data set [5] was determined as 8.4. In addition, the ATP cell depletion entry in data set [7] is “No”. Besides, the EC50 in [6] was 0.16 ± 0.026 µM.

As usually defined, the Km is the concentration of substrate that gives half-maximal velocity. Regarding `COc1cccc2c1C(=O)c1c(O)c3c(c(O)c1C2=O)C[C@@](O)(C(=O)CO)C[C@@H]3O[C@H]1C[C@H](N)[C@H](O)[C@H](C)O1` [Doxo, doxorubicin], the “viable cells, doxorubicin alone” value in [2] (HT29 cells, doxorubicin 10 μM) is given as “significant decrease in viable cells”. In data set [3] (HT29/DX cells compared with HT29 cells), the “intracellular doxorubicin retained, doxorubicin alone” value is “retained a lower amount of doxorubicin”. Besides, the “Vmax of doxorubicin efflux” value in data set [12] (setting [14]) was determined as 8.05 ± 0.64 µmol/min; in data set [13] (setting [14]), 3.15 ± 0.07 µmol/min. In addition, the results for the Km in data set [12] (setting [15]) and in [13] (setting [15]) were 0.52 ± 0.06 µM and 0.53 ± 0.06 µM, respectively.

On to `COc1cc2c(cc1OC)CN(CCc1ccc(NC(=O)c3cccc4c(=O)c5cccc(OC)c5[nH]c34)cc1)CC2` [elacr, elacridar, reference compound], for which the ATP cell depletion entry in data set [7] is “Yes^[e]”.

Regarding `COc1cc2c(cc1OC)CN(CCc1ccc(NC(=O)c3cc(OC)c(OC)cc3NC(=O)c3cnc4ccccc4c3)cc1)CC2` [tariq, tariquidar, reference compound], the efflux ratio at 120 min, 100 μM in [5] was greater than 20. In [7], the ATP cell depletion entry is “Yes^[d]”.

(Values after paper PMC9325490, “Overcoming Multidrug Resistance (MDR): Design, Biological Evaluation and Molecular Modelling Studies of 2,4‐Substituted Quinazoline Derivatives” (Chemmedchem, 2022).)
